Source: patent publication US11214803B2, “Modulators of YAP1 expression” (Ionis Pharmaceuticals, Inc., priority 2019, dated 2022)
Strand notation (5' to 3'): a small letter for the sugar, then the base; units joined by * are phosphorothioate-linked, units joined directly phosphodiester-linked; [ ] holds rarer units or linkages, { } end groups; capitals alone tell only the bases. k = constrained ethyl (cEt); [5mC] = 5-methylcytosine; d = 2'-deoxy (DNA)

System: Yap1 mRNA
Test: Antisense inhibition of human Yap1 in A-431 cells by cEt gapmers, single dose (Example 1, RTS4814)
Type: cell-based
Procedure, shortened: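 Free uptake of 2,000 nM 3-10-3 cEt gapmer (16-mer, full phosphorothioate, 5-methylcytosines) in A-431 cells for ~48 h. Yap1 mRNA quantified by qRT-PCR with set RTS4814, normalized to total RNA (RiboGreen), and expressed as % of untreated control; asterisked values target the amplicon region.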

[1] = Table 1, A-431 cells, free uptake, 2,000 nM, approximately 48 hours, RTS4814, Yap1 mRNA relative to untreated control cells
[2] = Table 2, A-431 cells, free uptake, 2,000 nM, approximately 48 hours, RTS4814, Yap1 mRNA relative to untreated control cells
[3] = A-431 cells, 5,000 cells per well, free uptake, 2,000 nM modified oligonucleotide, approx. 48 hours, RTS4814, normalized to RIBOGREEN, Table 3

Substance | YAP1 (% UTC) [1] [% UTC] | other results
715412 (k[5mC]*kT*kG*d[5mC]*dA*dT*d[5mC]*dA*dG*dT*dA*d[5mC]*dT*kG*kG*k[5mC]; antisense) [Compound 715412] | 66 | 
715467 (antisense k[5mC]*kA*kT*d[5mC]*dT*d[5mC]*d[5mC]*dT*dT*d[5mC]*d[5mC]*dA*dG*kT*kG*kT) [Compound 715467] |  | YAP1 (% UTC) [2]: 77 % UTC
715621 (antisense kT*kA*kA*dA*dA*dA*dA*dT*dA*dA*dG*dA*d[5mC]*kG*kG*kA) [Compound 715621] |  | YAP1 (% UTC) [3]: 106 % UTC
715445 (antisense k[5mC]*kA*kT*d[5mC]*d[5mC]*dT*dG*d[5mC]*dT*d[5mC]*d[5mC]*dA*dG*kT*kG*kT) [Compound 715445] | 87 | 
715526 (kA*k[5mC]*kT*dT*dA*d[5mC]*dT*dT*dT*dA*dA*dG*dA*kA*kG*kT; antisense) [Compound 715526] | 112 | 
715403 (kG*kA*kA*dG*dG*dA*dG*dT*d[5mC]*dG*dG*dG*d[5mC]*kA*kG*k[5mC]; antisense) [Compound 715403] | 72 | 
715533 (k[5mC]*k[5mC]*kT*dA*dA*d[5mC]*dA*dA*d[5mC]*d[5mC]*dT*dG*dG*kT*kT*kT; antisense) [Compound 715533] |  | YAP1 (% UTC) [2]: 97 % UTC
715531 (kA*k[5mC]*kA*dA*d[5mC]*d[5mC]*dT*dG*dG*dT*dT*dT*dG*kT*kT*kT; antisense) [Compound 715531] |  | YAP1 (% UTC) [3]: 94 % UTC
